Where two headings read alike, the source gives them in different places.
Key:
T-47D = test: NCI SRB growth inhibition (single dose 10 µM / five-dose); type: cell-based, human; conditions: Homo sapiens, T47D; for inhibition at 10 µM: T-47D (Breast cancer), read-out: GI%; for GI50: T-47D, Breast cancer, five-dose
Procedure: (§1) Screening of cytotoxic activity against a panel of sixty human tumor cell lines The selected compounds by NCI were evaluated for their anticancer activity in a two- stage process. […] Then, the output from the single dose screen is reported as a mean graph. […] Assay protocol. […] For a typical screening experiment, cells are inoculated into 96 well microtiter plates in 100 µL at plating densities ranging from 5000 to 40,000 cells/well depending on the doubling time of individual cell lines. […] After 24 h, two plates of each cell line are fixed in situ with TCA, to represent a measurement of the cell population for each cell line at the time of drug addition (Tz). The experimental drugs are solubilized in dimethyl sulfoxide at 400-fold the desired final maximum test concentration and stored frozen prior to use. At the time of drug addition, an aliquot of frozen concentrate is thawed and diluted to twice the desired final maximum test concentration with complete medium containing 50 µg/mL gentamicin. Additional four, 10-fold or ½ log serial dilutions are made to provide a total of five drug concentrations plus control. Aliquots of 100 mL of these different drug dilutions are added to the appropriate microtiter wells already containing […] of medium, resulting in the required final drug concentrations. […] For adherent cells, the assay is terminated by the addition of cold TCA. […] The supernatant is discarded, and the plates are washed five times with tap water and air dried. Sulforhodamine B (SRB) solution ([…]) at 0.4% (w/v) in 1% acetic acid is added to each well, and plates are incubated for 10 min at room temperature. After staining, unbound dye is removed by washing five times with 1% acetic acid and the plates are air dried. […] Using the seven absorbance measurements [time zero, (Tz), control growth, (C), and test growth in the presence of drug at the five concentration levels (Ti)], the percentage growth is calculated at each of the drug concentrations levels. Percentage growth inhibition is calculated as: [(Ti Tz)/(C–Tz)] x 100 for concentrations for which Ti>/=Tz and [(Ti-Tz)/Tz] x 100 for concentrations for which Ti < Tz. Three dose response parameters are calculated for each experimental agent. […] The drug concentration resulting in total growth inhibition (TGI) is calculated from Ti = Tz. […] Values are calculated for each of these three parameters if the level of activity is reached; however, if the effect is not reached or is exceeded, the value for that parameter is expressed as greater or less than the maximum or minimum concentration tested.

NCI-H322M = test: as above; type: cell-based, human; conditions: Homo sapiens; for inhibition at 10 µM: NCI-H322M (Non-small cell lung cancer), read-out: GI%; for GI50: NCI-H322M, Non-small cell lung cancer, five-dose
Procedure: as §1

HL-60(TB) = test: as above; type: cell-based, human; conditions: Homo sapiens; for inhibition at 10 µM: HL-60(TB) (Leukemia), read-out: GI%; for GI50: HL-60(TB), Leukemia, five-dose
Procedure: as §1

MDA-MB-468 = test: as above; type: cell-based, human; conditions: Homo sapiens; for inhibition at 10 µM: MDA-MB-468 (Breast cancer), read-out: GI%; for GI50: MDA-MB-468, Breast cancer, five-dose
Procedure: as §1

NCI-H460 = test: as above; type: cell-based, human; conditions: Homo sapiens; for inhibition at 10 µM: NCI-H460 (Non-small cell lung cancer), read-out: GI%; for GI50: NCI-H460, Non-small cell lung cancer, five-dose
Procedure: as §1

SF-295 = test: as above; type: cell-based, human; conditions: Homo sapiens; for inhibition at 10 µM: SF-295 (CNS cancer), read-out: GI%; for GI50: SF-295, CNS cancer, five-dose
Procedure: as §1

SK-MEL-5 = test: as above; type: cell-based, human; conditions: Homo sapiens; for inhibition at 10 µM: SK-MEL-5 (Melanoma), read-out: GI%; for GI50: SK-MEL-5, Melanoma, five-dose
Procedure: as §1

LOX IMVI = test: as above; type: cell-based, human; conditions: Homo sapiens; for inhibition at 10 µM: LOX IMVI (Melanoma), read-out: GI%; for GI50: LOX IMVI, Melanoma, five-dose
Procedure: as §1

UO-31 = test: as above; type: cell-based, human; conditions: Homo sapiens; for inhibition at 10 µM: UO-31 (Renal cancer), read-out: GI%; for GI50: UO-31, Renal cancer, five-dose
Procedure: as §1

DU-145 = test: as above; type: cell-based, human; conditions: Homo sapiens; for inhibition at 10 µM: DU-145 (Prostate cancer), read-out: GI%; for GI50: DU-145, Prostate cancer, five-dose
Procedure: as §1

[1] = system: NCI panel of 60 tumor cell lines; test: NCI SRB growth inhibition, whole panel mean (single dose 10 µM / five-dose); type: cell-based, human; conditions: Homo sapiens; for GI50: mean over NCI cancer cell lines, five-dose
Procedure: as §1

VEGFR-2 = biological target: T1, VEGFR-2 (Homo sapiens, UniProt P35968); test: VEGFR-2 kinase assay kit (BPS), Kinase-Glo Max luminescence; type: biochemical; conditions: VEGFR-2, single dose 10 µM, duplicate, mean ± SD
T1 construct: purchased BPS Biosciences 40325
Procedure: 2. Biochemical kinase assay procedure
The inhibitory activity against different kinases was determined using kinase kits […]
from BPS Biosciences and kinase-Glo Max luminescence kinase assay kit (Promega).
The assay was carried out according to the protocol provided by the manufacturer. A stock solution of the synthesized derivatives in 100% DMSO was prepared. Subsequently, the compounds were diluted to 10% DMSO.
A master mixture was prepared according to the number of wells. For VEGFR-2 and FGFR-1 biochemical assays each well include 6 μl of 5x Kinase Buffer 1 + 1 μl of 500 μM ATP + 1 μl of PTK Substrate (Poly-Glu,Tyr 4:1) (10 mg/ml) + 17 μl of distilled water. For BRAF assay each well include 6 μl of 5x Kinase Buffer 1 + 1 μl of ATP (500 μM) + 10 μl of 5X Raf substrate + 8 μl of distilled water. 1x Kinase buffer 1 was prepared by mixing 600 μl of 5x Kinase Buffer 1 with 2400 μl water to give 3 mL. Kinases were thawed on ice and were diluted with 1x Kinase Buffer 1.
To start the biochemical reaction, 25 µL of the master mixture was added to each well in 96 well plate. 5 µL of 10% DMSO was added to positive control wells and blank wells. 5 µL of diluted inhibitor was added to each well labelled with the test inhibitor so that the final concentration of DMSO is 1% in all reactions. Then 20 µL of (1 ng / μl) in case of VEGFR-2 and FGFR-1 or (2.5 ng/μl) in case of BRAF in 1x kinase buffer was added to positive control wells and wells labelled with the inhibitor, while 20 µL 1x kinase buffer 1 was added to the […]
The plate was incubated at 30 °C for 45 min. Subsequently, 50 μl of Kinase-Glo Max luminescence reagent was added to each well and the plate was covered with aluminum foil and incubated at room temperature 15 min. Finally, the luminescence was recorded using multimode microplate reader. Kinase activity assays were performed in duplicate at each […]
The luminescence data were analyzed as follows. The difference between luminescence intensities in the absence of kinase (Lut) and in the presence of kinase (Luc) was defined as 100 % activity (Lut – Luc). Using luminescence signal (Lu) in the presence of the compound, % activity was calculated as: % activity = {(Lut - Lu)/(Lut - Luc)}×100%. The […]
concentration of the test compounds required to reduce the kinase activity by 50% was determined from dose-response curves and recorded as their IC50. […]

[2] = mean over NCI 60 cell lines, > 100% = lethal effect, read-out: mean growth inhibition % (GI%)
[3] = mean over NCI panel of 60 tumor cell lines, read-out: Mean growth inhibition %

T1 sequence (P35968 20-1356): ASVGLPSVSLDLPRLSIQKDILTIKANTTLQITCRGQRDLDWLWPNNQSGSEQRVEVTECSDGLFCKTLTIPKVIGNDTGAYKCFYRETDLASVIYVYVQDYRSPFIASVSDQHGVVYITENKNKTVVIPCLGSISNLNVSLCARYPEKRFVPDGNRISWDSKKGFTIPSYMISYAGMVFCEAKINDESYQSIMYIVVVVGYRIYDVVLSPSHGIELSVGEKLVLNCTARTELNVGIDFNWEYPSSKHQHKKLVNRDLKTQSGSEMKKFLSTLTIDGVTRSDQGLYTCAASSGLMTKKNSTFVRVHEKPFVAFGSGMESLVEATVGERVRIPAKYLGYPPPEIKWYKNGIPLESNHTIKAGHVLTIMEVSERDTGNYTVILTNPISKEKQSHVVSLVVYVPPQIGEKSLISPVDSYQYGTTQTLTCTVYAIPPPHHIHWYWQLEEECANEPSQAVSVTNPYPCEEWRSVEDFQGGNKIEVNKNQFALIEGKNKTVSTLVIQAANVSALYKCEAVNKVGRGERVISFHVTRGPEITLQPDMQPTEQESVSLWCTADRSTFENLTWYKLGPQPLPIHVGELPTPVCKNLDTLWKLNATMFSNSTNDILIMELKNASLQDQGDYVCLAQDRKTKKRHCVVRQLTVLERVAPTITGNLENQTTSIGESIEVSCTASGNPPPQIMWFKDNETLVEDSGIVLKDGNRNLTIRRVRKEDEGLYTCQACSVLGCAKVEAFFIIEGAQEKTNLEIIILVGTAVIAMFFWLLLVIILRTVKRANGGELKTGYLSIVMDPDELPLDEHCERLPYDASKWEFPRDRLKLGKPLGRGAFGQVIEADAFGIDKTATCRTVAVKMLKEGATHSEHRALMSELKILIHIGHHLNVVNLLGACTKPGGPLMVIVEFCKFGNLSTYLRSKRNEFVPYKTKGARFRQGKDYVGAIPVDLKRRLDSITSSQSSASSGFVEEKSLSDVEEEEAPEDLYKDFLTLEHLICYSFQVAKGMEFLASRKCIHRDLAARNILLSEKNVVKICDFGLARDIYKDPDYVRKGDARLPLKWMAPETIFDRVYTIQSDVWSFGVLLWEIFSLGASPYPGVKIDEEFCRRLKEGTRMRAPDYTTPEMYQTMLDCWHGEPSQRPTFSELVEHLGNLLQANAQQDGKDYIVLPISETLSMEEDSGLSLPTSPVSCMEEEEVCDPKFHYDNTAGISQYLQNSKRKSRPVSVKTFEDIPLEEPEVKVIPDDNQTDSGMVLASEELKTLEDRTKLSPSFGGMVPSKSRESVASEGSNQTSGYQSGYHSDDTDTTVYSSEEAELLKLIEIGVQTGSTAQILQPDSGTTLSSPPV

`COc1ccc(-c2nc3cc(C(=O)NN=Cc4cccc(OC)c4)ccc3[nH]2)cc1` [8j, N'-(3-Methoxybenzylidene)-2-(4-methoxyphenyl)-1H-benzo[d]imidazole-5-carbohydrazide] was tested, and the inhibition at 10 µM (T-47D) was > 100%, the GI50 (T-47D) was 2.62 µM and the inhibition at 10 µM (NCI-H322M) was > 100%. It also gave a GI50 (NCI-H322M) of 3.03 µM, an inhibition at 10 µM (HL-60(TB)) of 30.4% and a GI50 (HL-60(TB)) of 36.5 µM. For the same compound, the inhibition at 10 µM (MDA-MB-468) was > 100%, the GI50 (MDA-MB-468) was 3.06 µM and the inhibition at 10 µM (NCI-H460) was > 100%. It also gave a GI50 (NCI-H460) of 1.85 µM, an inhibition at 10 µM (SF-295) of 167% and a GI50 (SF-295) of 2.93 µM. For the same compound, the inhibition at 10 µM (SK-MEL-5) was > 100%, the GI50 (SK-MEL-5) was 3.45 µM and the inhibition at 10 µM (LOX IMVI) was > 100%. It also gave a GI50 (LOX IMVI) of 1.98 µM, an inhibition at 10 µM (UO-31) of 98.9% and a GI50 (UO-31) of 1.78 µM. The inhibition at 10 µM (DU-145) was > 100%, the GI50 (DU-145) was 3.28 µM and the inhibition at 10 µM [1, 2] was 100%. For the same compound, the GI50 [1] was 5.24 µM, the inhibition at 10 µM [1, 3] was > 100% and the inhibition at 10 µM (VEGFR-2) was 15.7 ± 1.41%.
`COc1cccc(C=NNC(=O)c2ccc3[nH]c(-c4ccc(Cl)cc4)nc3c2)c1` [8q, 2-(4-Chlorophenyl)-N'-(3-methoxybenzylidene)-1H-benzo[d]imidazole-5-carbohydrazide] was tested, and the inhibition at 10 µM (T-47D) was > 100%, the GI50 (T-47D) was 1.95 µM and the inhibition at 10 µM (NCI-H322M) was > 100%. The GI50 (NCI-H322M) was 3.57 µM, the inhibition at 10 µM (HL-60(TB)) was 50.7% and the GI50 (HL-60(TB)) was 19.5 µM. For the same compound, the inhibition at 10 µM (MDA-MB-468) was > 100%, the GI50 (MDA-MB-468) was 2.97 µM and the inhibition at 10 µM (NCI-H460) was > 100%. The GI50 (NCI-H460) was 3.34 µM, the inhibition at 10 µM (SF-295) was > 100% and the GI50 (SF-295) was 2.17 µM. The inhibition at 10 µM (SK-MEL-5) was > 100%, the GI50 (SK-MEL-5) was 4.9 µM and the inhibition at 10 µM (LOX IMVI) was > 100%. The GI50 (LOX IMVI) was 1.82 µM, the inhibition at 10 µM (UO-31) was 81.7% and the GI50 (UO-31) was 3.46 µM. The inhibition at 10 µM (DU-145) was > 100%, the GI50 (DU-145) was 2.04 µM and the inhibition at 10 µM [1, 2] was > 100%. The GI50 [1] was 5.4 µM, the inhibition at 10 µM [1, 3] was > 100% and the inhibition at 10 µM (VEGFR-2) was 21.5 ± 1.54%.
For `COc1ccc(OC)c(C=NNC(=O)c2ccc3[nH]c(-c4ccc(Cl)cc4)nc3c2)c1` [8t, 2-(4-Chlorophenyl)-N'-(2,5-dimethoxybenzylidene)-1H-benzo[d]imidazole-5-carbohydrazide], the inhibition at 10 µM (T-47D) was 61.8%, the inhibition at 10 µM (NCI-H322M) was 28.9% and the inhibition at 10 µM (HL-60(TB)) was 12.9%. The inhibition at 10 µM (MDA-MB-468) was 30.4%, the inhibition at 10 µM (NCI-H460) was 17.5% and the inhibition at 10 µM (SF-295) was 51.9%. It also gave an inhibition at 10 µM (SK-MEL-5) of 68.8%, an inhibition at 10 µM (LOX IMVI) of 34.6% and an inhibition at 10 µM (UO-31) of 31.9%. For the same compound, the inhibition at 10 µM (DU-145) was 52%, the inhibition at 10 µM [1, 2] was 33.5% and the inhibition at 10 µM [1, 3] was 33.5%. For the same compound, the inhibition at 10 µM (VEGFR-2) was 34 ± 2.57%.
